Numbering of substitutions follows the chain as printed.
Tests used:
[1] = target: T1, binding of 125I-sauvagine to the cerebellum (Rattus norvegicus, UniProt P35353); assay: In vivo potency assessment using ex vivo binding; settings: oral route
T1 construct: from tissue; host or cells: rat cerebellum
T1 sequence (P35353 24-415): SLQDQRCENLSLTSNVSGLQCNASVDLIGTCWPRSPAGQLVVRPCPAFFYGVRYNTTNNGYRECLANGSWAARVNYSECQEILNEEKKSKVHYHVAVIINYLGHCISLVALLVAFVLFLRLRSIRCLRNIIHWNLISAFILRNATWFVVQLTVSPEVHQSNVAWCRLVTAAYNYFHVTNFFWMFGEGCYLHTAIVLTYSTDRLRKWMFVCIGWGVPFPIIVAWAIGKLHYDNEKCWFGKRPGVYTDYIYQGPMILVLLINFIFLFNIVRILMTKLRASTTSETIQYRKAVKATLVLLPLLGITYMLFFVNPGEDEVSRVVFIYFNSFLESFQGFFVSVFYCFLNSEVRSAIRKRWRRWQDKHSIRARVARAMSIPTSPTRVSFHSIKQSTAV
Procedure: To assess in vivo potency, a compound of the present invention is evaluated using ex vivo binding. Using the procedures as provided in D. R. Gehlert et al., EJP 509: 145-153 (2005), a compound is administered to a rat via the oral route.

[2] = target: T2, human CRF1 (Homo sapiens, UniProt P34998); assay: CRF1 filter binding assay; settings: HEK-hCRF1 membranes; 125I-Sauvagine (4 nM) in roller/adherent cells; read-out: Ki (inhibition constant), inhibition of binding of 125I-Sauvagine
T2 construct: expressed in transfected cells
T2 sequence (P34998 24-415): T1 sequence (P35353 24-415) with R6H, N9S, T13A, V16I, V153M, A163G, V209I, H229Y, R356H
Procedure: The limitations of plasmid-based human CRF1 expression, in terms of generating a recombinant cell line with sufficient receptor density to develop a binding assay, are overcome by using a Phoenix retroviral expression system licensed from Stanford. The stable HEK-hCRF1 cell line is used to prepare membranes and binding reactions (200 μl) are set up as follows: 50 μl of ^125I-sauvagine (0.2 nM final), 50 μl compound and 100 μl CRF1 membrane (25 μg/reaction). The reactions are incubated at room temperature for 2 hours and then terminated by filtration through pre-treated FB Millipore glass fiber filter plates (96 well). The plates are wash twice with ice-cold assay buffer (50 mM tris, 12.5 mM NaCl, 1 mM EDTA, 10 mM MgCl2, 0.05% BSA, pH 7.2), air dried over night and counted with 100 μl Microscint 40 in a MicroBeta counter. Non-specific binding (NSB) is determined in the presence of 0.5 μM non-labeled sauvagine. Triplicate determinations are typically run and the median data points plotted by Graph Pad Prism.
Using this assay, the exemplified compounds of the present invention (except for Examples 2, 3, 6, 7, and 8, which were used as intermediates for other Examples and were not tested.) inhibit the binding of ^125I-Sauvagine (4 nM) in roller/adherent cells with a Ki (inhibition constant)≦500 nM.

[3] = target: T3, human CRF2 (Homo sapiens, UniProt Q13324); assay: CRF2 filter binding assay; settings: HEK-hCRF2 membranes; compound concentration 50 μM
T3 construct: expressed in transfected cells
T3 sequence (Q13324 1-411): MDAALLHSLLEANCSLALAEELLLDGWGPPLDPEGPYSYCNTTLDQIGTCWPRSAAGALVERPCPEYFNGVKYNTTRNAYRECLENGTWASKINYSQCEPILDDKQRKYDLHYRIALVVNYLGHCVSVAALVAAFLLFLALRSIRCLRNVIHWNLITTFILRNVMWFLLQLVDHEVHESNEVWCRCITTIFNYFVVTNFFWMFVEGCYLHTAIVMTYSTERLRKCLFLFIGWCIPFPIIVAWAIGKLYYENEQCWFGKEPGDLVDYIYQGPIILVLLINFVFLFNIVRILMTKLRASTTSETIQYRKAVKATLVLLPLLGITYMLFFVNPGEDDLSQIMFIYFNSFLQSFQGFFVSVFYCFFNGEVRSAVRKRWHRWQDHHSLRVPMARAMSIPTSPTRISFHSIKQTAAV
Procedure: The limitations of plasmid-based human CRF2 expression, in terms of generating a recombinant cell line with sufficient receptor density to develop a binding assay, are overcome by using a Phoenix retroviral expression system licensed from Stanford. The stable HEK-hCRF2 cell line is used to prepare membranes and binding reactions (200 μl) are set up as follows: 50 ul of ^125I-sauvagine (0.2 nM final concentration), 50 μl compound and 100 μl CRF2 membrane (25 μg/reaction). The reactions are incubated at room temperature for 2 hours and then terminated by filtration through pre-treated FB Millipore glass fiber filter plates (96 well). The plates are washed twice with ice-cold assay buffer (50 mM tris, 12.5 mM NaCl, 1 mM EDTA, 10 mM MgCl2, 0.05% BSA, pH 7.2), air dried over night and counted with 100 μl Microscint 40 in a MicroBeta counter. Non-specific binding (NSB) is determined in the presence of 0.5 μM non-labeled sauvagine. Alternatively, compounds are evaluated using a Scintillation Proximity assay. […] Bound radioactivity is assessed using a Wallac Trilux scintillation counter. Binding is assessed typically using triplicate determinations and the median data points plotted by Graph Pad Prism. […]

Compound: CCCC(CCC)c1cc(C)nc2c(-c3sc(-c4ncnn4C)cc3Cl)c(C)nn12 [Example 20, 3-[3-Chloro-5-(2-methyl-2H-[1,2,4]triazole-3-yl)-thiophene-2-yl]-7-(1-propyl-butyl)-2,5-dimethyl-pyrazolo[1,5-a]pyrimidine]
- inhibition at 10 mg/kg [1]: 74%
- Ki [2]: 4.4 nM
- inhibition at 50 µM [3]: 39%
